Experimental data: patent US20080241211A1, “DEVICE WHICH ENHANCES THE BIOLOGICAL ACTIVITY OF LOCALLY APPLIED GROWTH FACTORS WITH PARTICULAR EMPHASIS ON THOSE USED FOR BONE REPAIR” (University of Southern California, priority 2007, published 2008)
“Also recorded” adds a separate entry of the source.

Columns and labels:
estrogen receptor = assay: Naringin enhancement of BMP-2 effect with estrogen receptor antagonist ICI182,780 in C2C12; type: cell-based; conditions: FIG. 5
Experimental: Intracellular distribution of the estrogen receptor in skeletal myoblasts (C2C12) was determined by immuno-fluorescent staining (Milanesi, L., et al., J Cell Biochem, 2008). Naringin bind to estrogen receptor. Inhibition of estrogen receptor abrogate naringin effect. […] However, the mechanism by which naringin exerts its effects is still unclear. From our prelimianry study, there is evidence that naringin acts via estrogen-receptor (ER)-mediated signaling. Cells were cultured with naringin, in combination with 7α,17β-[9[(4,4,5,5,5-pentafluoropentyl)sulfinyl]nonyl] estra-1,3,5(10)-triene-3,17-diol (ICI182,780), a non-specific ERα and ERβ antagonist.

osteoblasts = conditions: cited from earlier work
MG-63 human osteoblasts = conditions: via activation of the estrogen receptor; cited from earlier work
[1] = system: Pre-myoblast cell line C2C12; assay: BMP-2 induced ALP activity in C2C12 cell culture; type: cell-based
Experimental: C2C12 was plated in 96-well culture plate with density of 12.5K/well in 10% FBS/DMEM for 5 hours attachment. […] Cells were incubated at 37° C. for another 48 hours. Cell membrane associated ALP activity was tested by standard ALP assay.
C2C12 was plated in 96-well culture plate with density of 12.5K/well in 10% FBS/DMEM for 5 hours attachment. Medium was changed into 1% testing medium. Forty nano-gram of rhBMP-2 in 10 μl was added in every well and 1-1600 nM of naringin was added 10 minutes later.

[2] = system: Rat bone marrow derived stem cells; assay: MTT cell proliferation assay; type: cell-based; conditions: 48 h, FIG. 6
Source text: MTT was used for cell proliferation assay. MTT [3-(4,5-dimethylthiazol-2-yl)-2,5-diphenyltetrazolium bromide] assay is based on the ability of a mitochondrial dehydrogenase enzyme from viable cells to cleave the tetrazolium rings of the pale yellow MTT and form a dark blue formazan crystals which is largely impermeable to cell membranes, thus resulting in its accumulation within healthy cells. Rat bone marrow derived stem cells were selected by pro-plating methods. Cells used in this study were from passages 3-4. 1×10^7 viable cells/mL in culture media containing 10% FCS were dispensed 100 μL per well in 96 well flat bottomed tissue culture plates. Cells were allow to grow with and without naringin and incubated plates in a humidified CO2 incubator at 37° C. for 48 h. 10 μL of MTT solution were added to all wells of 48 h cultured stem cells and incubate for 4 h at 37° C. After washing cells 3 times with PBS, dark blue dye in cells were dissolved with DMSO. After a few minutes at room temperature read plates using a plate reader in dual wavelength measuring system, at 540 nm and a reference wavelength of 630 nm.
Dose dependent of naringin on bone marrow stem cell proliferation was studied. Cell number was assayed by MTT method. […] (see FIG. 6).

[3] = Collagen sponge implants, subcutaneous or intramuscular bone induction in rats; type: in vivo, rat
Experimental: Collagen sponge was either blended with naringin solution or covalently crosslinked naringin to collagen sponges. Different doses of BMP-2 were added to the matrices before implantation. Samples were placed intramuscular in thigh muscle. Ten Fisher 344 rats with 180 g in weight were used in this study. Implants were be retrieved 28 days postoperatively. Explants were dissected free of muscle flaps and cut into halves. One half of each explant was used for alkaline phosphatase assay.
Based on these surprising discoveries, the inventors concluded that specific growth factors are needed in addition to naringin for bone to form (FIG. 3).
It will be recognized by one skilled in the art that osteoinductive enhancers are particularly useful in situations where fracture healing is compromised, such as in older people where biosynthetic abilities may be declining, or in situations where not sufficient bone is available for repair. It will also be understood by one of ordinary skill in the art that the addition of growth factors (natural or synthetic) to the naringin containing preparation is essential for osteoinduction.

[4] = DBM with naringin in abdominal muscle pouches of nude rats, ectopic bone formation; type: in vivo; conditions: optimized dose of naringin
Experimental: Osteoinductive (OI) activity of human DBM obtained from Tissue Bank with particle size of 210-750 micrometers was tested in vitro with cell culture methods (Han, 2003). DBM were grouped according their OI score.
Two doses of naringin were used to treat DBM particles before implantation. In 50 mg of DBM, 50 micro liter of 100 micromolar or […] of naringin/PBS solution was added into DBM before implantation.
Muscle pouches were created in abdominal muscles bilaterally in nude rats (weighing 120-150 g each) at 6 sites by sharp and blunt dissection. Subsequently, fifty milligrams of three groups of DBM, two doses of naringin/PBS and with PBS alone, were packed into pouches and closed with a single absorbable suture. Implants were retrieved 28 days postoperatively. The recti abdomini muscles were excised as single muscle flaps and placed in cold PBS moisturized paper towels for radiography. Explants were dissected free of muscle flaps and cut into halves. One half of each explant were used for alkaline phosphatase assay and the other half were fixed in 10% neutral buffered formalin solution for 24 hours and decalcified with a decalcifying solution (Stephens Scientific, Riverdale, N.J.) for 48 hours. The decalcified explants were paraffin-embedded and sectioned with a […] microtome. […]

SMILES: C[C@]12CC[C@@H]3c4ccc(O)cc4C[C@@H](CCCCCCCCC[S+]([O-])CCCC(F)(F)C(F)(F)F)[C@H]3[C@@H]1CC[C@@H]2O (stereo partly drawn) [ICI, 7α,17β-[9[(4,4,5,5,5-pentafluoropentyl)sulfinyl]nonyl] estra-1,3,5(10)-triene-3,17-diol]
- effect of estrogen receptor antagonist on naringin enhancing BMP-2 effect (estrogen receptor): partially block naringin enhancing BMP-2 effect

SMILES: O=c1c(-c2ccc(O)cc2)coc2cc(O)ccc12 [daidzein]
- increase of viability of osteoblasts (osteoblasts; daidzein 2-50 microM, P<0.05): about 1.4 fold
- increase of alkaline phosphatase activity of osteoblasts (osteoblasts; daidzein 2-100 microM, P<0.05): about 1.4 fold
- increase of osteocalcin synthesis of osteoblasts (osteoblasts; daidzein 2-100 microM, P<0.05): ~2.0 fold
- BMP2 mRNA increase (osteoblasts; osteoblasts): 5.0 fold
- BMP2 protein increase (osteoblasts; osteoblasts): 7.0 fold

SMILES: O=c1c(O)c(-c2ccc(O)cc2)oc2cc(O)cc(O)c12 [kaempferol]
- alkaline phosphatase activity in MG-63 human osteoblasts (MG-63 human osteoblasts): induced an increase in alkaline phosphatase activity

SMILES: C[C@@H]1O[C@@H](O[C@H]2[C@H](Oc3cc(O)c4c(c3)O[C@H](c3ccc(O)cc3)CC4=O)O[C@H](CO)[C@@H](O)[C@@H]2O)[C@H](O)[C@H](O)[C@H]1O [naringin]
- naringin concentration with maximal enhancing ALP effect ([1]; 40 ng rhBMP-2 per well, 1-1600 nM naringin added 10 minutes later, FIG. 4): 800 nM
- increase of BMP-2 activity by naringin ([1]; BMP-2 plus naringin versus BMP-2 alone, FIG. 3): four-fold
- BMP-2 activity in the ALP assay when naringin is added ([1]; BMP-2 plus naringin, FIG. 3): 0.4
- induction of differentiation in osteoprogenitor cells by alkaline phosphatase activity ([1]; C2C12, preliminary results): significant induction of differentiation
- effect of naringin on BMP-2 induced ALP activity ([1]; naringin added to BMP-2, C2C12, FIG. 3): increases the upregulation of alkaline phosphatase activity by BMP-2; also recorded: dose dependently increase BMP-2 induced ALP activity
- effect of naringin by itself on ALP activity / osteoinductivity ([1]; naringin alone, no BMP-2, C2C12, 48 hours): not enough for osteogenic induction; also recorded: no effect on ALP activity; also recorded: no osteoinductivity at all
- bone marrow stem cell proliferation (MTT) [2]: inhibits rat bone marrow cell proliferation
- new bone induction ([3]; collagen sponges with naringin plus growth factors (BMP2 and/or BMP7), subcutaneous or intramuscular model): did induce bone
- new bone induction ([3]; naringin alone with collagen carrier, no growth factors, rats): do not induce new bone; also recorded: not sufficient to induce bone; also recorded: no bone was formed; also recorded: no effect
- DBM activity in regard of ectopic bone formation potential [4]: significantly increased

SMILES: O=c1c(O)c(-c2ccc(O)c(O)c2)oc2cc(O)cc(O)c12 [quercetin]
- alkaline phosphatase activity in MG-63 human osteoblasts (MG-63 human osteoblasts): induced an increase in alkaline phosphatase activity
